Measured values published in paper PMC12392461, “Beyond Estrogenicity: A Comparative Assessment of Bisphenol A and Its Alternatives in In Vitro Assays Questions Safety of Replacements” (Environmental Science & Technology, 2025).
Read-outs that look alike come from different tables or passages of the source.

Tests used:
[1] = system: Antioxidant response element; assay: MitoOxTox: oxidative stress response in AREc32; conditions: for EC10, linear / logEC10: Bioassay ARE, dosing range all; for EC10, linear: linear model fit; for logEC10: log-logistic model fit
Summary of the method: (§1)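 Only concentrations below cytotoxic IC10 entered EC10 or ECIR1.5 derivation, with ECIR1.5 serving as the ARE benchmark in AREc32 (MCF7) cells. AhR was read in H4L7.5c2 CALUX cells. SH-SY5Y cells received 10 µM all-trans retinoic acid for differentiation and were assessed by live–dead staining; other lines by confluency.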

H4IIe (AhR CALUX) = conditions: for IC10, linear transformed / IC10, linear / logIC10: Bioassay AhR, dosing range all; for IC10, linear transformed / IC10, linear / logIC10 / IC10, H4IIe, AhR: cytotoxicity; for IC10, linear: linear model fit; for logIC10: log-logistic model fit; for Toxic ratio (TR) TRAhR: against baseline cytotoxicity; for IC10, H4IIe, AhR: H4IIe (AhR assay cells)
Summary of the method: (§2)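 IncuCyte confluency readout, pre- vs post-24 h exposure, normalized to no-cell wells. Seeding 24 h before dosing; ERα 5000, AhR 3250 cells/well. 11-point dilutions, duplicates, ≥3 independent runs. Methanol <1%. IC10 caps data used for EC10/ECIR1.5.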

MCF7 (ARE/MMP) = conditions: for IC10, linear transformed / IC10, linear / logIC10: dosing range all; for Toxic ratio (TR) TRARE / Toxic ratio (TR) TRMMP: against baseline cytotoxicity; for Toxic ratio (TR) TRARE: ARE readout; for Toxic ratio (TR) TRMMP: MMP readout; for IC10, MCF7, ARE: MCF7, ARE readout; for IC10, MCF7, MMP: MCF7, MMP readout
Summary of the method: as §2

HEK293T (ERα) = conditions: for IC10, linear transformed / IC10, linear / logIC10: Bioassay ERα; for IC10, linear transformed / IC10, linear / logIC10 / IC10, HEK293, ERα: cytotoxicity; for IC10, linear: linear model fit; for logIC10: log-logistic model fit; for Toxic ratio (TR) TRERα: against baseline cytotoxicity; for IC10, HEK293, ERα: HEK293 (ERα assay cells)
Summary of the method: as §2

HEK293H (PPARγ) = conditions: for IC10, linear transformed / IC10, linear / logIC10: PPARγ bioassay cytotoxicity, dosing range all; for IC10, linear: linear model; for logIC10: log-logistic model; for Toxic ratio (TR) TRPPARγ: against baseline cytotoxicity; for IC10, HEK293, PPARγ: cytotoxicity, HEK293 (PPARγ assay cells)
Summary of the method: as §2

SH-SY5Y cells = assay: cells; conditions: for EC10: Homo sapiens, SH-SY5Y; for EC10, linear / logEC10: NOI bioassay, dosing range all; for EC10, linear: linear model; for logEC10: log-logistic model;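 for Relative effect potency REPNOI: EC10 of BPA divided by EC10 of the test compound so values above 1 mean more potent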;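 for Specificity ratio (SRbaseline) SRNOI: ratio of predicted baseline cytotoxicity IC10 to the neurite outgrowth inhibition EC10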
Summary of the method: as §1

[2] = Arec32, read-out: EC10, linear transformed
[3] = against experimental cytotoxicity
[4] = Bioassay ARE, cytotoxicity, linear model fit
[5] = Bioassay ARE, cytotoxicity, log-logistic model fit
[6] = MMP bioassay cytotoxicity, linear model
[7] = MMP bioassay cytotoxicity, log-logistic model
[8] = read-out: EC10, linear transformed

Row | Structure (SMILES) | IC10, linear transformed (H4IIe (AhR CALUX)) | IC10, linear (H4IIe (AhR CALUX)) | logIC10 (H4IIe (AhR CALUX)) | IC10, H4IIe, AhR (H4IIe (AhR CALUX)) [µM] | IC10, linear transformed (MCF7 (ARE/MMP); Bioassay ARE, cytotoxicity) | IC10, linear (MCF7 (ARE/MMP); [4]) | logIC10 (MCF7 (ARE/MMP); [5]) | IC10, linear transformed (MCF7 (ARE/MMP); MMP bioassay cytotoxicity) | IC10, linear (MCF7 (ARE/MMP); [6]) | logIC10 (MCF7 (ARE/MMP); [7]) | IC10, MCF7, ARE (MCF7 (ARE/MMP); cytotoxicity) [µM] | IC10, MCF7, MMP (MCF7 (ARE/MMP); cytotoxicity) [µM] | IC10, linear transformed (HEK293T (ERα); dosing range all) | IC10, linear (HEK293T (ERα); dosing range all) | IC10, HEK293, ERα (HEK293T (ERα)) [µM] | IC10, linear transformed (HEK293H (PPARγ)) | IC10, linear (HEK293H (PPARγ)) | logIC10 (HEK293H (PPARγ)) | IC10, HEK293, PPARγ (HEK293H (PPARγ)) [µM] | EC10 (SH-SY5Y cells; [8]) [M] | also measured
1 | O=C(OCc1ccccc1)c1ccc(O)cc1 [BzPB, Benzyl 4-hydroxybenzoate] | 2.87E-04 | 1.74E-04 | -3.54 | 174 | 8.95E-05 | 1.23E-04 | -4.05 | 2.97E-04 | 1.94E-04 | -3.53 | 89.5 | 297 | 1.15E-05 | 4.80E-05 | 42.1 | 3.90E-06 | 3.41E-05 | -4.33 | 46.8 | 0.000412 | EC10 ([1]; Arec32, read-out: EC10, linear): 32.1 µM; EC10 [1, 2]: 16.7 µM; EC10 ([1]; Arec32, read-out: logEC10): 19.5 µM; Specificity ratio (SRbaseline) SRARE ([1]; against baseline cytotoxicity): 1.73; Specificity ratio (SRcytotoxicity) SRARE [1, 3]: 4.62; ECIR1.5, ARE ([1]; effect, induction ratio 1.5): 19.4 µM; ECIR1.5, ARE (M) ([1]; induction ratio 1.5): 1.94 × 10^–5 M; log(1/EC10) AREc32 ([1]; input of the ToxPi score, values up to 1.00): 1.00; SR (ARE) ([1]; specificity ratio): < 10; Toxic ratio (TR) TRAhR (H4IIe (AhR CALUX)): 0.19; Toxic ratio (TR) TRARE (MCF7 (ARE/MMP)): 0.38; Toxic ratio (TR) TRMMP (MCF7 (ARE/MMP)): 0.11; logIC10 (HEK293T (ERα); dosing range all): -4.38; Toxic ratio (TR) TRERα (HEK293T (ERα)): 0.39; Toxic ratio (TR) TRPPARγ (HEK293H (PPARγ)): 0.35; EC10, linear (SH-SY5Y cells): no effect; logEC10 (SH-SY5Y cells): no effect
2 | CCC(C)(c1ccc(O)cc1)c1ccc(O)cc1 [BPB, 4,4'-(Butane-2,2-diyl)diphenol] | 8.31E-05 | 6.98E-05 | -4.08 | 69.8 | 3.73E-05 | 3.87E-05 | -4.43 | 3.51E-05 | 3.05E-05 | -4.46 | 37.3 | 35.1 | – | – | 20.9 | 2.50E-06 | 1.29E-05 | -4.83 | 14.8 | 3.89e-05 | EC10, linear [1]: no effect; logEC10 [1]: no effect; Toxic ratio (TR) TRAhR (H4IIe (AhR CALUX)): 0.31; Toxic ratio (TR) TRARE (MCF7 (ARE/MMP)): 0.58; Toxic ratio (TR) TRMMP (MCF7 (ARE/MMP)): 0.62; IC10, linear transformed (HEK293T (ERα); dosing range high): 6.28E-06; IC10, linear (HEK293T (ERα); dosing range high): no cytotoxicity; logIC10 (HEK293T (ERα); dosing range high): -4.68; IC10, linear (HEK293T (ERα); dosing range low): no cytotoxicity; logIC10 (HEK293T (ERα); dosing range low): no cytotoxicity; Toxic ratio (TR) TRERα (HEK293T (ERα)): 0.43; Toxic ratio (TR) TRPPARγ (HEK293H (PPARγ)): 0.61; EC10 (SH-SY5Y cells; read-out: EC10, NOI): 2.8e-05 M; EC10 (SH-SY5Y cells; read-out: EC10, NOI (M)): 2.8e-05 M; EC10 (SH-SY5Y cells; read-out: EC10, linear): 4.03e-05 M; EC10 (SH-SY5Y cells; read-out: logEC10): 2.82e-05 M; Specificity ratio (SRbaseline) SRNOI (SH-SY5Y cells; against baseline cytotoxicity): 0.59; Specificity ratio (SRcytotoxicity) SRNOI (SH-SY5Y cells; [3]): 5.98; Relative effect potency REPNOI (SH-SY5Y cells; relative to BPA): 1.81
3 | Oc1ccc(Cc2ccc(O)cc2)cc1 [BPF, Bis(4-hydroxyphenyl)methane] | 2.92E-04 | 2.92E-04 | -3.53 | 292 | 6.56E-04 | 6.90E-04 | -3.18 | 5.26E-04 | 5.00E-04 | -3.28 | 656 | 526 | 1.16E-05 | 1.61E-04 | 164 | 6.05E-06 | 1.05E-04 | -4.01 | 97.7 | 0.000697 | EC10 [1, 2]: 1470 µM; EC10, linear [1]: no effect; logEC10 [1]: masked by cytotoxicity; logIC10 (HEK293T (ERα); dosing range all): -3.78; EC10, linear (SH-SY5Y cells): no effect; logEC10 (SH-SY5Y cells): no effect
4 | CC(c1ccccc1)(c1ccc(O)cc1)c1ccc(O)cc1 [BPAP, 4,4'-(1-Phenylethylidene)bisphenol] | 9.59E-05 | no cytotoxicity | -4.02 | 95.9 | 3.14E-05 | 2.44E-05 | -4.50 | 3.48E-05 | 2.54E-05 | -4.46 | 31.4 | 34.8 | 1.11E-05 | no cytotoxicity | 11.8 | 3.60E-06 | no cytotoxicity | -4.99 | 10.2 | 5.09e-05 | EC10, linear [1]: no effect; logEC10 [1]: no effect; logIC10 (HEK293T (ERα); dosing range all): -4.93; EC10 (SH-SY5Y cells; read-out: EC10, NOI): 5.12e-05 M; EC10 (SH-SY5Y cells; read-out: EC10, NOI (M)): 5.12e-05 M; EC10 (SH-SY5Y cells; read-out: EC10, linear): 4.83e-05 M; EC10 (SH-SY5Y cells; read-out: logEC10): 5.13e-05 M
